Assay results from patent US20230365563A1, “QUINAZOLINE COMPOUND AND APPLICATION THEREOF” (SHANGHAI PHARMACEUTICALS HOLDING CO., LTD., priority 2020, published 2023).
Where a name gives a salt, the structure may show the parent alone.

Columns and labels:
KRAS_WT and SOS1 = target: T1, KRAS_WT and SOS1 (Homo sapiens, UniProt P01116); assay: Inhibition of KRAS_WT/SOS1 binding (Cisbio binding kit, 665/615 ratio), Effect Embodiment C; conditions: read-out: GTP-KRAS-WT:SOS1 IC50
T1 construct: purchased
T1 sequence (P01116 1-188 isoform P01116-2): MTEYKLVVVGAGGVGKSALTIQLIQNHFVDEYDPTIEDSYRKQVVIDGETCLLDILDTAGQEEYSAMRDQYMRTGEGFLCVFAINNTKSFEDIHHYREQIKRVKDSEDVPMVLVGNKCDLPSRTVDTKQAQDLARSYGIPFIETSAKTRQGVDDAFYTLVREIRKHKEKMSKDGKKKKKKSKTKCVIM
Method: The inhibitory ability of small molecule compounds on the binding activity of KRAS_WT and SOS1 was examined by a drug screening system based on the combination of KRAS_WT and SOS1.
(§1) Similarly, the first dilution point of the compound to be tested was its storage solution, and the solution was 3-fold diluted, with 11+0 points of dilution. Echo was used to transfer 0.2 μL gradient diluted solution of the compounds into a 384-well plate, with 2 duplicated wells for each compound, and the final concentration of DMSO was 1%. The solution was centrifuged for 1 min at 1000 rpm/min.
(§2) IC50 of the compounds was fitted by Graphpad Prism 8 nonlinear regression equation: […]
(§3) The IC50 (half inhibitory concentration) of the compound was obtained by using the following nonlinear fitting formula: […]

KRAS-G12D and SOS1 = target: T2, KRAS-G12D and SOS1 (Homo sapiens, UniProt P01116, G12D); assay: Inhibition of KRAS-G12D/SOS1 binding (Cisbio binding kit, 665/615 ratio), Effect Embodiment A; conditions: read-out: GTP-KRAS-G12D:SOS1 IC50
T2 construct: purchased
T2 sequence (P01116 1-188 isoform P01116-2 G12D): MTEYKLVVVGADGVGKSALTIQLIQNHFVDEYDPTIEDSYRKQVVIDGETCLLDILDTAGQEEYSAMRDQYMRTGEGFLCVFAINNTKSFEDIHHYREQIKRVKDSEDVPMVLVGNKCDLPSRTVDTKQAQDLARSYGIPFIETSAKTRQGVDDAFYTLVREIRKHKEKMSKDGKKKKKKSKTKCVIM
Procedure, shortened: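 Duplicate wells received an eleven-point, threefold compound titration whose top point was the stock solution; final DMSO 1%.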

KRAS_G12D and cRAF = target: T3, KRAS_G12D and cRAF (Homo sapiens, UniProt P01116, G12D); assay: Inhibition of KRAS_G12D/cRAF binding (Cisbio binding kit, 665/615 ratio), Effect Embodiment B; conditions: read-out: GTP-KRAS-G12D:CRAF IC50
T3 construct: purchased
T3 sequence (P01116 1-188 isoform P01116-2 G12D): as above
Method: as §1, §2, §3

| SMILES | IC50 (KRAS_WT and SOS1) [nM] | IC50 (KRAS-G12D and SOS1) [nM] | IC50 (KRAS_G12D and cRAF) [nM] |
| --- | --- | --- | --- |
| CN(C)C1CN(c2nc(N3CC4CCCC3CN4)c3cc(Cl)c(-c4cc(O)cc5ccccc45)c(F)c3n2)C1 (single isomer, unassigned) [Compound 37, 4-((S or R)-4-((1S,5S or 1R,5R)-6,8-diazabicyclo[3.2.2]nonan-6-yl)-6-chloro-2-(3-(dimethylamino)azetidin-1-yl)-8-fluoroquinazolin-7-yl)naphthalen-2-ol] | 1010 | 629 | 2140 |
| CN(C)C1CN(c2nc(N3CC4CC(C3)N4)c3cc(Cl)c(-c4cc(O)cc5ccccc45)c(F)c3n2)C1 (single isomer, unassigned) [Compound 25, 4-((7S or 7R)-4-(3,6-diazabicyclo[3.1.1]heptan-3-yl)-6-chloro-2-(3-(dimethylamino)azetidin-1-yl)-8-fluoroquinazolin-7-yl)naphthalen-2-ol] | 2550 | 294 | 4380 |
| CN(C)C1CN(c2nc(N3C[C@@H]4CC[C@H]3CN4)c3cc(Cl)c(-c4cc(O)cc5ccccc45)c(F)c3n2)C1 (single isomer, unassigned) [Compound 4a, (R or S)-4-(4-((1S,4S)-2,5-diazabicyclo [2.2.2]octan-2-yl)-6-chloro-2-(3-(dimethylamino)azetidin-1-yl)-8-fluoro-quinazolin-7-yl)naphthalen-2-ol] | 401 | 36.9 | 213 |
| Cc1cccc2cc(O)cc(-c3c(Cl)cc4c(N5CC6CCC(C5)N6)nc(N5CC(N(C)C)C5)nc4c3F)c12 (single isomer, unassigned) [Compound 47a, 4-((S or R)-4-((1R,5S)-3,8-diazabicyclo[3.2.1]octan-3-yl)-6-chloro-2-(3-(dimethylamino)azetidin-1-yl)-8-fluoroquinazolin-7-yl)-5-methylnaphthalen-2-ol] | 5700 | 208 | 824 |
| CN(C)C1CCC(Oc2nc(N3CC4CCC(C3)N4)c3cc(Cl)c(-c4cc(O)cc5ccccc45)c(F)c3n2)C1 (single isomer, unassigned) [Compound 70b, 4-((S or R)-4-((1R,5S)-3,8-diazabicyclo[3.2.1]octan-3-yl)-6-chloro-2-((1R,3S or 1S,3R)-3-(dimethylamino)cyclopentyl)oxy)-8-fluoroquinazolin-7-yl)naphthalen-2-ol dihydrochloride] | > 100000 | 66 | 515 |
| CC1OCCN(CCCOc2nc(N3CC4CCC(C3)N4)c3cc(Cl)c(-c4cc(O)cc5ccccc45)c(F)c3n2)C1C (single isomer, unassigned) [Compound 265c, 4-((R or S)-4-((1R,5S)-3,8-diazabicyclo[3.2.1]octan-3-yl)-6-chloro-2-(3-((2S or 2R, 3S or 3R)-(2,3-dimethylmorpholinyl)propoxy)-8-fluoroquinazolin-7-yl)naphthalen-2-ol diformate] | 1280 | 49.8 | 135 |
| Oc1cc(-c2c(Cl)cc3c(N4C[C@H]5CC[C@@H](C4)N5)nc(OCCCN4C[C@@H]5C[C@H]4CO5)nc3c2F)c2ccccc2c1 (single isomer, unassigned) [Compound 165, (R or S)-4-(2-(3-((1S,4S)-2-oxa-5-azabicyclo[2.2.1]heptan-5-yl)propoxy)-4-((1R,5S)-3,8-diazabicyclo[3.2.1]octan-3-yl)-6-chloro-8-fluoroquinazolin-7-yl)naphthalen-2-ol dihydrochloride] | 1880 | 27.8 | 85.4 |
| C[C@H]1CN(CCCOc2nc(N3CC4CCC(C3)N4)c3cc(Cl)c(-c4cc(O)cc5ccccc45)c(F)c3n2)CCO1 (single isomer, unassigned) [Compound 246, 4-((S or R)-4-((1R,5S)-3,8-diazacyclo[3.2.1]octan-3-yl)-6-chloro-8-fluoro-2-(3-((S)-2-methylmorpholinyl)propoxy)quinazolin-7-yl)naphthalen-2-ol formate] | 3700 | 37.4 | 218 |
| CN(C)[C@H]1C[C@H](Oc2nc(N3CC4CCC(C3)N4)c3cc(Cl)c(-c4cc(O)cc5ccccc45)c(F)c3n2)C1 (single isomer, unassigned) [Compound 69b, 4-((S or R)-4-((1R,5S)-3,8-diazabicyclo[3.2.1]octan-3-yl)-6-chloro-2-((1R,3S)-3-(dimethylamino)cyclobutoxy)-8-fluoroquinazolin-7-yl)naphthalen-2-ol dihydrochloride] | > 100000 | 157 | 1960 |
| Oc1cc(-c2c(Cl)cc3c(N4CC5CCC(C4)N5)nc(OCCCN4C5CCC4COC5)nc3c2F)c2ccccc2c1 (single isomer, unassigned) [Compound 106, (4S or R)-4-(2-(3-(3-oxa-8-azabicyclo[3.2.1]octan-8-yl)propoxy)-4-((1R,5S)-3,8-diazabicyclo[3.2.1]octan-3-yl)-6-chloro-8-fluoroquinazolin-7-yl)naphthalen-2-ol dihydrochloride] | 1770 | 39.1 | 158 |
| CCN(C)CCCOc1nc(N2CC3CCC(C2)N3)c2cc(Cl)c(-c3cc(O)cc4ccccc34)c(F)c2n1 (single isomer, unassigned) [Compound 49a] | 1710 | 36.2 | 159 |
| CN1CCCC1CCOc1nc(N2CC3CCC(C2)N3)c2cc(Cl)c(-c3cc(O)cc4ccccc34)c(F)c2n1 (single isomer, unassigned) [Compound 96a, 4-((S or R)-4-((1R,5S)-3,8-diazabicyclo[3.2.1]octan-3-yl)-6-chloro-8-fluoro-2-(2-((S or R)-1-methylpyrrolidin-2-yl)ethoxy)quinazolin-7-yl)naphthalen-2-ol] | 1540 | 22 | 88.5 |
| CN(C)C1CN(c2nc(N3C4CC5CC3CC(C4)N5)c3cc(Cl)c(-c4cc(O)cc5ccccc45)c(F)c3n2)C1 (single isomer, unassigned) [Compound 34, 4-((S or R)-4-(2,6-diazaadamantan-2-yl)-6-chloro-2-(3-(dimethylamino)azetidin-1-yl)-8-fluoroquinazolin-7-yl)naphthalen-2-ol] | 279 | 188 | – |

These reach a lower IC50 (KRAS_WT and SOS1). Values come first.

| IC50 (KRAS_WT and SOS1) [nM] | IC50 (KRAS-G12D and SOS1) [nM] | IC50 (KRAS_G12D and cRAF) [nM] | SMILES |
| --- | --- | --- | --- |
| 234 | 17.1 | 14.1 | CCc1c(F)ccc2cccc(-c3c(F)cc4c(N5CC6CCC(C5)N6)nc(OC[C@@]56CCCN5C[C@H](F)C6)nc4c3F)c12 (single isomer, unassigned) [Compound 280a, 4-((1R,5S)-3,8-diazacyclo[3.2.1]octan-3-yl)-7-((S or R)-8-ethyl-7-fluoronaphthalen-1-yl)-6,8-difluoro-2-((2R,7aS)-2-fluorotetrahydro-1H-pyrrolidin-7a(5H)-yl)methoxy)quinazoline dihydrochloride] |
| 160 | 16.4 | 11.8 | CCc1c(F)ccc2cc(O)cc(-c3c(F)cc4c(N5CC6CCC(C5)N6)nc(OC[C@H](C)CN5C6CCC5COC6)nc4c3F)c12 (single isomer, unassigned) [Compound 229a, 4-((7S or 7R)-2-((2R)-3-(3-oxa-8-azabicyclo[3.2.1]octan-8-yl)-2-methylpropoxy)-4-((1R,5S)-3,8-diazabicyclo[3.2.1]octan-3-yl)-6,8-difluoroquinazolin-7-yl)-5-ethyl-6-fluoronaphththalen-2-ol formate] |
| 122 | 17.6 | 38.6 | N#Cc1cccc2cc(O)cc(-c3c(F)cc4c(N5CC6CCC(C5)N6)nc(OCCCN5C6CCC5COC6)nc4c3F)c12 (single isomer, unassigned) [Compound 278a, 8-((7S or 7R)-2-(3-(3-oxa-8-azabicyclo[3.2.1]octan-8-yl)propoxy)-4-((1R,5S)-3,8-diazabicyclo[3.2.1]octan-3-yl)-6,8-difluoroquinazolin-7-yl)-6-hydroxy-1-naphthonitrile diformate] |
| 84.6 | 23.7 | 16.4 | C=CCCOCCCN1CCC[C@H]1COc1nc(N2CC3CCC(C2)N3)c2cc(F)c(-c3cc(O)cc4ccc(F)c(CC)c34)c(F)c2n1 (single isomer, unassigned) [Compound 249, 4-((S or R)-4-((1R,5S)-3,8-diazacyclo[3.2.1]octan-3-yl)-2-((S)-1-(3-(but-3-en-1-oxy)propyl)pyrrolidin-2-yl)methoxy)-6,8-difluoroquinazolin-7-yl)-5-ethyl-6-fluoronaphthalen-2-ol dihydrochloride] |
| 75.2 | 8.42 | 14.6 | CCc1c(F)ccc2cc(O)cc(-c3c(F)cc4c(N5CC6CCC(C5)N6)nc(OCCCN5C[C@@H](C)O[C@@H](C)C5)nc4c3F)c12 (single isomer, unassigned) [Compound 250a, (S or R)-4-(4-((1R,5S)-3,8-diazacyclo[3.2.1]octan-3-yl)-2-(3-((2R,6S)-2,6-dimethylmorpholinyl)propoxy)-6,8-difluoroquinazolin-7-yl)-5-ethyl-6-fluoronaphthalen-2-ol formate] |
| 8.01 | 13.2 | 8.68 | Oc1cc(-c2c(Cl)cc3c(N4CC5CCC(C4)N5)nc(OC[C@@]45CCCN4C[C@H](F)C5)nc3c2F)c2c(F)c(F)ccc2c1 (single isomer, unassigned) [Compound 214a, 4-((S or R)-4-((1R,5S)-3,8-diazabicyclo[3.2.1]octane-3-yl)-6-chloro-8-fluoro-2-((2R,7aS)-2-fluorotetrahydro-1H-pyrrolidin-7a (5H)-yl)methoxy)quinazolin-7-yl)-5,6-difluoronaphthalen-2-ol diformate] |
